Experimental data as given in ChEMBL document CHEMBL1201862, “PubChem BioAssay data set” (2004).
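Cultured in 96-well plates, cells were exposed to test compound for 48 hours across five concentrations. Abbreviation: GI50, concentration required for 50% inhibition of growth.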 Calls of active or inactive are those of the source. Cut-off read from the data, not from the text of the source: active = GI50 up to about 1.1 µM and inactive = higher.

Experiments:
Test in all cases: growth of human tumour cells (NCI), 48 h
[1] = system: 786-0
[2] = system: A549
[3] = system: ACHN
[4] = system: BT-549
[5] = system: CAKI-1
[6] = system: CCRF-CEM
[7] = system: COLO 205
[8] = system: DU-145
[9] = system: EKVX
[10] = system: HCC 2998
[11] = system: HCT-116
[12] = system: HCT-15
[13] = system: HL-60
[14] = system: HOP-62
[15] = system: HOP-92
[16] = system: HT-29
[17] = system: Hs-578T
[18] = system: IGROV-1
[19] = system: K562
[20] = system: KM12
[21] = system: LOX IMVI
[22] = system: M14
[23] = system: MCF7
[24] = system: MDA-MB-231
[25] = system: MDA-MB-435
[26] = system: MDA-N
[27] = system: MOLT-4
[28] = system: Malme-3M
[29] = system: NCI-H226
[30] = system: NCI-H23
[31] = system: NCI-H460
[32] = system: NCI-H522
[33] = system: NCI/ADR-RES
[34] = system: OVCAR-3
[35] = system: OVCAR-4
[36] = system: OVCAR-5
[37] = system: OVCAR-8
[38] = system: PC-3
[39] = system: RPMI-8226
[40] = system: RXF 393
[41] = system: SF-268
[42] = system: SF-295
[43] = system: SF-539
[44] = system: SK-MEL-28
[45] = system: SK-MEL-2
[46] = system: SK-MEL-5
[47] = system: SK-OV-3
[48] = system: SN12C
[49] = system: SNB-19
[50] = system: SNB-75
[51] = system: SR
[52] = system: SW-620
[53] = system: T47D
[54] = system: TK-10
[55] = system: U-251
[56] = system: UACC-257
[57] = system: UACC-62
[58] = system: UO-31
[59] = system: A498

Cc1ccc(C(=O)O)c(CC2Cc3c(C)cccc3C2=O)c1 (stereo unspecified)
GI50 [1]: > 100 µM (inactive)
GI50 [2]: > 100 µM (inactive)
GI50 [3]: > 100 µM (inactive)
GI50 [4]: > 100 µM (inactive)
GI50 [5]: > 100 µM (inactive)
GI50 [6]: > 100 µM (inactive)
GI50 [7]: > 100 µM (inactive)
GI50 [8]: > 100 µM (inactive)
GI50 [9]: > 100 µM (inactive)
GI50 [10]: > 100 µM (inactive)
GI50 [11]: > 100 µM (inactive)
GI50 [12]: > 100 µM
GI50 [13]: > 100 µM (inactive)
GI50 [14]: > 100 µM (inactive)
GI50 [15]: > 100 µM (inactive)
GI50 [16]: > 100 µM (inactive)
GI50 [17]: > 100 µM (inactive)
GI50 [18]: > 100 µM (inactive)
GI50 [19]: > 100 µM (inactive)
GI50 [20]: > 100 µM (inactive)
GI50 [21]: 90.4 µM (inactive)
GI50 [22]: > 100 µM (inactive)
GI50 [23]: > 100 µM (inactive)
GI50 [24]: > 100 µM (inactive)
GI50 [25]: > 100 µM (inactive)
GI50 [26]: > 100 µM (inactive)
GI50 [27]: > 100 µM (inactive)
GI50 [28]: > 100 µM (inactive)
GI50 [29]: > 100 µM (inactive)
GI50 [30]: > 100 µM (inactive)
GI50 [31]: > 100 µM (inactive)
GI50 [32]: > 100 µM (inactive)
GI50 [33]: > 100 µM (inactive)
GI50 [34]: > 100 µM (inactive)
GI50 [35]: > 100 µM (inactive)
GI50 [36]: > 100 µM (inactive)
GI50 [37]: > 100 µM (inactive)
GI50 [38]: > 100 µM (inactive)
GI50 [39]: > 100 µM (inactive)
GI50 [40]: > 100 µM (inactive)
GI50 [41]: > 100 µM (inactive)
GI50 [42]: > 100 µM (inactive)
GI50 [43]: > 100 µM (inactive)
GI50 [44]: > 100 µM (inactive)
GI50 [45]: > 100 µM (inactive)
GI50 [46]: > 100 µM (inactive)
GI50 [47]: > 100 µM (inactive)
GI50 [48]: > 100 µM (inactive)
GI50 [49]: > 100 µM (inactive)
GI50 [50]: > 100 µM (inactive)
GI50 [51]: > 100 µM (inactive)
GI50 [52]: > 100 µM (inactive)
GI50 [53]: > 100 µM (inactive)
GI50 [54]: > 100 µM (inactive)
GI50 [55]: > 100 µM (inactive)
GI50 [56]: > 100 µM (inactive)
GI50 [57]: > 100 µM (inactive)
GI50 [58]: > 100 µM (inactive)

C#C[C@]1(O)CC[C@H]2[C@@H]3CCC4=C/C(=N/NC(=O)c5cccc6cc7ccccc7nc56)CC[C@@H]4[C@H]3CC[C@@]21CC
GI50 [1]: 34.4 µM (inactive)
GI50 [59]: > 100 µM (inactive)
GI50 [2]: 47 µM (inactive)
GI50 [3]: > 100 µM (inactive)
GI50 [4]: > 100 µM (inactive)
GI50 [5]: 29.3 µM (inactive)
GI50 [6]: 40.5 µM (inactive)
GI50 [7]: 70.5 µM (inactive)
GI50 [8]: > 100 µM (inactive)
GI50 [10]: > 100 µM (inactive)
GI50 [11]: 60.5 µM (inactive)
GI50 [12]: 56 µM
GI50 [13]: 48 µM (inactive)
GI50 [14]: 67.9 µM (inactive)
GI50 [15]: > 100 µM (inactive)
GI50 [16]: 41.4 µM (inactive)
GI50 [17]: 94 µM (inactive)
GI50 [18]: 87.9 µM (inactive)
GI50 [19]: > 100 µM (inactive)
GI50 [20]: > 100 µM (inactive)
GI50 [21]: 48.9 µM (inactive)
GI50 [22]: 84.7 µM (inactive)
GI50 [23]: 38.4 µM (inactive)
GI50 [24]: > 100 µM (inactive)
GI50 [25]: 91.4 µM (inactive)
GI50 [26]: 93.3 µM (inactive)
GI50 [27]: 0.0942 µM (active)
GI50 [29]: > 100 µM (inactive)
GI50 [30]: > 100 µM (inactive)
GI50 [31]: 36.3 µM (inactive)
GI50 [33]: 58.9 µM (inactive)
GI50 [34]: 75.5 µM (inactive)
GI50 [35]: > 100 µM (inactive)
GI50 [36]: 77.3 µM (inactive)
GI50 [37]: 45 µM (inactive)
GI50 [38]: 62.2 µM (inactive)
GI50 [39]: 71.6 µM (inactive)
GI50 [40]: > 100 µM (inactive)
GI50 [41]: 70 µM (inactive)
GI50 [43]: 33.9 µM (inactive)
GI50 [44]: > 100 µM (inactive)
GI50 [45]: > 100 µM (inactive)
GI50 [46]: 21.9 µM (inactive)
GI50 [47]: > 100 µM (inactive)
GI50 [48]: 35.4 µM (inactive)
GI50 [49]: > 100 µM (inactive)
GI50 [50]: > 100 µM (inactive)
GI50 [51]: 38.5 µM (inactive)
GI50 [52]: > 100 µM (inactive)
GI50 [53]: 21 µM (inactive)
GI50 [55]: > 100 µM (inactive)
GI50 [56]: > 100 µM (inactive)
GI50 [57]: 95.5 µM (inactive)
